Values of other authors, collected in patent publication US20240065974A1, “ORAL THIN FILM” (LTS Lohmann Therapie-Systeme AG, priority 2021, published 2024).

Settings: compared with (R)-ketamine

## CNC1(c2ccccc2Cl)CCCCC1=O (racemic) [(S)-ketamine, (S)-(±)-2-(2-chlorophenyl)-2-(methylamino)cyclohexan-1-one]
  Analgesic and anaesthetic potency relative to the (R) form: approximately three times higher
